Assay results published in patent US10646479B2, “Use of N-(4-iodobenzoylamino)-5-ethyl-1,2,3,6-tetrahydropyridine as a treatment for cancer” (Florida A&M University, priority 2018, dated 2020).

Tests used:
Type in all cases: cell-based, human
Ishikawa cell line = experiment: CellTiter-Glo (CTG) luminescent cell viability assay, Ishikawa cells; details: for IC50: Ishikawa endometrial adenocarcinoma cells, CTG viability
Experimental: (§1) This compound was evaluated against three types of cancer cells: Ishikawa, MDA-MB-231, and MCF-7 using the CellTiter-Glo (CTG) luminescent cell viability assay. Ishikawa cell line is an endometrial adenocarcinoma isolated from a person. MDA-MB-231 is a triple negative breast cancer cell line isolated from a person. MCF-7 is an estrogen receptor positive breast cancer cell line isolated from a person.

MCF-7 cell line = experiment: CellTiter-Glo (CTG) luminescent cell viability assay, MCF-7 cells; details: for IC50: MCF-7 estrogen receptor positive breast cancer cells, CTG viability
Experimental: as §1

MDA-MB-231 cell line = experiment: CellTiter-Glo (CTG) luminescent cell viability assay, MDA-MB-231 cells; details: for IC50: MDA-MB-231 triple negative breast cancer cells, CTG viability
Experimental: as §1

IC50 (MCF-7 cell line; Homo sapiens, MCF7)	IC50 (MDA-MB-231 cell line; Homo sapiens)	IC50 (MCF-7 cell line)	IC50 (MDA-MB-231 cell line)	Compound	IC50 (Ishikawa cell line; Homo sapiens)	activity compared to Tamoxifen and 4-Hydroxytamoxifen (Ishikawa cell line; Ishikawa cell line)	activity compared to Tamoxifen and 4-Hydroxytamoxifen (MCF-7 cell line; MCF-7 cell line)	activity compared to Tamoxifen and 4-Hydroxytamoxifen (MDA-MB-231 cell line; MDA-MB-231 cell line)	IC50 (Ishikawa cell line)
1.25 µM	5.67 µM	–	–	CCC1=CCCN(NC(=O)c2ccc(I)cc2)C1 [EH-1-40, N-(4-iodobenzoylamino)-5-ethyl-1,2,3,6-tetrahydropyridine]	2.93 µM	better activity	better activity	better activity	–
–	–	6.78 µM	23.1 µM	4-Hydroxytamoxifen [reference compound]	–	–	–	–	26.4 µM
